According to patent US20160177395A1, “BIOMARKERS FOR THE PREDICTION OF RENAL INJURY” (priority 2007, published 2016):

System: kidney tissues
Test: Random-Forest classifier for renal toxicity, discovery stage (Day-5 and Day-1 signatures)
Design: species or system rat
Conditions: Day-5 animals, qRT-PCR data, signature of Table 13
Excerpt: Finding signatures using machine learning algorithms requires two steps—selecting a limited set of features to be used for the signature, and building a classifier using these features. The feature selection stage is especially significant here for several reasons. Large number of features means a low signal to noise ratio, tampering the classifier performance, large number of features, compared to the relatively small number of samples, means that spurious features might exists. These are features that give good classification on the experiment data by chance, causing the classifier to be over-fitted to the learning set and have low prediction ability, and finally—a small number of features is important for practical application of the signature.
The initial features selection process is done by performing Mann-Whitney (Wilcoxon) rank-sum test on the data, considering only probesets whose overall normalized expression mean is over 25, to avoid working at noise-level. […]
The qRT-PCR data was used to construct the optimal Random-Forest classifier for Day-5 (Table 13) and Day-1 (Table 16). The optimal performance of the Day-5 signatures, as measured by cross validation is—Accuracy of 94% and LOR of 5.6. […]

`[Cl][Cd][Cl]` [Cadmium chloride] was tested, and the “Samples classified correctly as toxic by the optimal Day-5 classifier” value was 5 out of 6.
